# Reference: publication PMC2361324, “Phase 1 trial of the antiangiogenic peptide ATN-161 (Ac-PHSCN-NH2), a beta integrin antagonist, in patients with solid tumours” (British Journal of Cancer, 2006)
# Experiment: Toxicity / adverse events in phase 1 trial (NCI CTC v2.0)
# Type: in vivo, human
# Details: for Number of patients with ATN-161-associated adverse events: possible, probable or definite relationship
# Protocol: ATN-161 was administered as a 10-min infusion, three times per week. Sequential cohorts of three patients were enrolled to eight different dose levels (0.1, 0.25, 0.5, 1.0, 2.0, 4.0, 8.0 and 16.0 mg kg^−1). All patients in a given dose level were evaluated for at least 28 days before patients could be treated at the next higher dose level. Patients receiving therapy for <1 cycle (4 weeks) were to be replaced unless they had experienced a DLT. Toxicity was evaluated according to the NCI Common Terminology Criteria (CTC) Version 2.0. Dose-limiting toxicities were defined as any of the following treatment-related events occurring during the first cycle of therapy: Grade 4 neutropenia or febrile neutropenia, any other Grade 3 or greater nonhaematologic toxicity, or any toxicity requiring ATN-161 to be held for more than 1 week (i.e., three consecutive missed doses). In the event of DLT, dosing was to be held until recovery to at least Grade 1 toxicity and a new dosing cycle for that patient was to be initiated at the investigator's discretion at 50% of the previous dose. […] In the event of Grade 2 toxicity involving vital organs (hepatic, pulmonary, renal, neurologic, gastrointestinal or cardiotoxicity), the dose of ATN-161 was to be held until recovery to Grade 0–1 before a new cycle was initiated at 100% dosing. If the Grade 2 toxicity recurred, dosing was to be held until recovery to Grade 0–1 and the next cycle would resume at 50%. Occurrence of DLT at a given dose level would require further enrolment of up to six patients at that dose level to determine if the MTD had been exceeded. The MTD was defined as one dose level below which ⩾2/6 patients experienced a DLT. Treatment could continue until progressive disease, or one of the following: unacceptable toxicity, intercurrent illness, patient declined further treatment, or physician decision in view of a patient's other medical conditions.
# During treatment, patients were evaluated monthly with physical examinations including toxicity assessment using the CTC, ECOG PS, serum chemistry, haematology and coagulation testing. Tumour burden was reassessed every two cycles (8 weeks) by physical exam or radiological methods as appropriate using RECIST ([Therasse et al, 2000]).
# No inferential analyses were performed. Data are presented in a descriptive fashion. Treatment-emergent adverse events were translated from investigator terms to MedDRA terminology and summarised within and across dose levels for all patients who received at least one dose of ATN-161. Treatment administration is described for all patients, including drug/dose administration, number of cycles, dose modifications or delays and duration of therapy.
# [1] = dose level 0.5 mg kg^−1, ATN-161-associated, any course
# [2] = dose level 1.0 mg kg^−1, ATN-161-associated, any course
# [3] = dose level 2.0 mg kg^−1, ATN-161-associated, any course
# [4] = dose level 4.0 mg kg^−1, ATN-161-associated, any course
substance,measurement,setting,value
"Ac-PHSCN-NH2 [ATN-161, Ac-PHSCN-NH2]",Number of patients with Muscle cramps,[1],1
same,Number of patients with Sweating increased,[1],1
same,Number of patients with ATN-161-associated adverse events,"dose level 0.5 mg kg^−1, any course",1
same,Number of patients with Cellulitis,[2],1
same,Number of patients with Dry mouth,[2],1
same,Number of patients with Pain in limb,[2],1
same,Number of patients with Paresthesia,[2],1
same,Number of patients with Phlebitis not otherwise specified (NOS),[2],1
same,Number of patients with ATN-161-associated adverse events,"dose level 1.0 mg kg^−1, any course",1
same,Number of patients with Anemia NOS,[3],1
same,Number of patients with Hypotension NOS,[3],1
same,Number of patients with Oral candidiasis,[3],1
same,Number of patients with ATN-161-associated adverse events,"dose level 2.0 mg kg^−1, any course",2
same,Number of patients with Constipation,[4],1
same,Number of patients with Fatigue,[4],1
same,Number of patients with Nausea,[4],2
same,Number of patients with ATN-161-associated adverse events,"dose level 4.0 mg kg^−1, any course",2
same,Number of patients with Nausea,"dose level 8.0 mg kg^−1, ATN-161-associated, any course",1
same,Number of patients with ATN-161-associated adverse events,"dose level 8.0 mg kg^−1, any course",1
same,Number of patients with Hypotension NOS,"dose level 16.0 mg kg^−1, ATN-161-associated, any course",1
same,Number of patients with ATN-161-associated adverse events,"dose level 16.0 mg kg^−1, any course",1
same,Dose-limiting toxicities (DLTs),"patients, 0.1-16 mg kg^−1 thrice weekly i.v., 26 patients",no DLTs occurred
same,MTD (maximum tolerated dose),"patients, 10-min i.v. infusion three times per week, not reached, 16 mg kg^−1 designated maximum administered dose",> 16 mg/kg
